Laboratory results as given in patent US7714135B2, “Tetrahydropyridothiophenes for the treatment of proliferative diseases such as cancer” (4SC AG, priority 2005, dated 2010).

Legend:
[1] = test system: RKO colon adenocarcinoma cells (RKOp27) arrested by the expression of ectopic p27Kip1; experiment: Alamar Blue cell viability assay on RKOp27 cells arrested by Ponasterone A-induced p27Kip1 expression (cell cycle specific mode of action); type: cell-based; details: Homo sapiens, RKOp27 subclone induced with 10 μM Ponasterone A, 72 hours incubation, read-out: IC50 RKO p27 induced (arrested)
Protocol: To determine the cell cycle specific mode of action, subclones of RKO colon adenocarcinoma cells (RKOp27 or RKOp21 as described by Schmidt et al. in Oncogene 19, 2423-2429; 2000) are seeded into 96 well flat bottom plates at a density of 16000 cells per well in a volume of 50 μl per well in DMEM growth medium with 10% FCS containing 10 μM Ponasterone A. 24 hours after seeding the 50 μl each of the compound dilutions in DMEM medium are added into each well of the 96 Well plate. Each compound dilution is tested as quadruplicates. Wells containing untreated control cells are filled with 50 μl DMEM medium containing 1% DMSO. The cells are then incubated with the substances for 72 hours at 37° C. in a humidified atmosphere containing 5% carbon dioxide. To determine the viability of the cells, 10 μl of an Alamar Blue solution (Biosource) are added and the fluorescence was measured at an extinction of 544 nm and an emission of 590 nm. For the calculation of the cell viability the emission value from untreated cells is set as 100% viability and the emission rates of treated cells are set in relation to the values of untreated cells. Viabilities are expressed as % values. Viability is compared of proliferating cells grown in the absence of the inducer Ponasterone A, versus viability of cells arrested by the expression of ectopic p27Kip1 induced by Ponasterone A.

[2] = test system: RKO (RKOp27) human colon adenocarcinoma cells; experiment: Alamar Blue cell viability assay, anti-proliferative/cytotoxic activity on proliferating (uninduced) RKOp27 cells; type: cell-based; details: RKOp27 subclone without inducer, 72 hours incubation, read-out: IC50 RKO p27 uninduced (proliferating)
Protocol: The anti-proliferative/cytotoxic activity of the compounds described herein, can be tested on subclones of RKO (RKOp27) human colon adenocarcinoma cells (Schmidt et al., Oncogene 19, 2423-2429; 2000) using the Alamar Blue cell viability assay (described in O'Brien et al. Eur J Biochem 267, 5421-5426, 2000). The compounds are dissolved as 20 mM solutions in dimethylsulfoxide (DMSO) and subsequently diluted in semi-logarithmic steps. DMSO dilutions are further diluted 1:100 into Dulbecco's modified Eagle's medium (DMEM) containing 10% fetal calf serum to a final concentration twice as much as the final concentration in the test. RKO subclones are seeded into 96 well flat bottom plates at a density of 4000 cells per well in a volume of 50 μl per well. 24 hours after seeding the 50 μl each of the compound dilutions in DMEM medium are added into each well of the 96 Well plate. Each compound dilution is tested as quadruplicates. Wells containing untreated control cells are filled with 50 μl DMEM medium containing 1% DMSO. The cells are then incubated with the substances for 72 hours at 37° C. in a humidified atmosphere containing 5% carbon dioxide. To determine the viability of the cells, 10 μl of an Alamar Blue solution (Biosource) are added and the fluorescence is measured at an extinction of 544 nm and an emission of 590 nm. For the calculation of the cell viability the emission value from untreated cells is set as 100% viability and the emission rates of treated cells are set in relation to the values of untreated cells. Viabilities are expressed as % values.
The corresponding IC50 values of the compounds for anti-proliferative/cytotoxic activity are determined from the concentration-effect curves.
Representative IC50 values for anti-proliferation/cytotoxicity determined in the mentioned assay follow from the following table A, in which the numbers of the compound correspond to the numbers of the examples.

With `CCOC(=O)N1CCc2c(sc(NC(=O)CCc3ccccn3)c2C#N)C1` [Example 36, 3-Cyano-2-(3-pyridin-2-yl-propanoylamino)-4,7-dihydro-5H-thieno[2,3-c]pyridine-6-carboxylic acid ethyl ester] the IC50 [1] was greater than 100000 nM and the IC50 [2] was no more than 300 nM.
`COCCOC(=O)N1CCc2c(sc(NC(=O)CCc3cccnc3)c2C#N)C1` [Example 37, 3-Cyano-2-(3-pyridin-3-yl-propanoylamino)-4,7-dihydro-5H-thieno[2,3-c]pyridine-6-carboxylic acid 2-methoxy-ethyl ester] was tested, and the IC50 [1] was no less than 40000 nM and the IC50 [2] was 300 to 2000 nM.
With `N#Cc1c(NC(=O)CCc2cccnc2)sc2c1CCN(C(=O)OCc1ccccn1)C2` [Example 38, 3-Cyano-2-(3-pyridin-3-yl-propanoylamino)-4,7-dihydro-5H-thieno[2,3-c]pyridine-6-carboxylic acid pyridin-2-ylmethyl ester] the IC50 [1] was greater than 100000 nM and the IC50 [2] was 300 to 2000 nM.
With `N#Cc1c(NC(=O)CCc2cccnc2)sc2c1CCN(C(=O)OCc1cccnc1)C2` [Example 39, 3-Cyano-2-(3-pyridin-3-yl-propanoylamino)-4,7-dihydro-5H-thieno[2,3-c]pyridine-6-carboxylic acid pyridin-3-ylmethyl ester] the IC50 [1] was greater than 100000 nM and the IC50 [2] was 300 to 2000 nM.
`N#Cc1c(NC(=O)CCc2cccnc2)sc2c1CCN(C(=O)OCc1ccncc1)C2` [Example 40, 3-Cyano-2-(3-pyridin-3-yl-propanoylamino)-4,7-dihydro-5H-thieno[2,3-c]pyridine-6-carboxylic acid pyridin-4-ylmethyl ester] showed an IC50 [1] of no less than 40000 nM and an IC50 [2] of 300 to 2000 nM.
In the case of `COCCOC(=O)N1CCc2c(sc(NC(=O)CCc3ccco3)c2C#N)C1` [Example 41, 3-Cyano-2-(3-furan-2-yl-propanoylamino)-4,7-dihydro-5H-thieno[2,3-c]pyridine-6-carboxylic acid 2-methoxy-ethyl ester], the IC50 [1] is reported as greater than 100000 nM and the IC50 [2] is reported as no more than 300 nM.
In the case of `N#Cc1c(NC(=O)CCc2ccco2)sc2c1CCN(C(=O)OCc1ccccn1)C2` [Example 42, 3-Cyano-2-(3-furan-2-yl-propanoylamino)-4,7-dihydro-5H-thieno[2,3-c]pyridine-6-carboxylic acid pyridin-2-ylmethyl ester], the IC50 [1] is reported as greater than 100000 nM and the IC50 [2] is reported as no more than 300 nM.
Work on `N#Cc1c(NC(=O)CCc2ccco2)sc2c1CCN(C(=O)OCc1cccnc1)C2` [Example 43, 3-Cyano-2-(3-furan-2-yl-propanoylamino)-4,7-dihydro-5H-thieno[2,3-c]pyridine-6-carboxylic acid pyridin-3-ylmethyl ester] yielded an IC50 [1] greater than 100000 nM and an IC50 [2] of no more than 300 nM.
`N#Cc1c(NC(=O)CCc2ccco2)sc2c1CCN(C(=O)OCc1ccncc1)C2` [Example 44, 3-Cyano-2-(3-furan-2-yl-propanoylamino)-4,7-dihydro-5H-thieno[2,3-c]pyridine-6-carboxylic acid pyridin-4-ylmethyl ester] was tested, and the IC50 [1] was greater than 100000 nM and the IC50 [2] was no more than 300 nM.
In the case of `N#Cc1c(NC(=O)CCc2ccco2)sc2c1CCN(C(=O)OCCc1ccccn1)C2` [Example 45, 3-Cyano-2-(3-furan-2-yl-propanoylamino)-4,7-dihydro-5H-thieno[2,3-c]pyridine-6-carboxylic acid 2-pyridin-2-yl-ethyl ester], the IC50 [1] is reported as greater than 100000 nM and the IC50 [2] is reported as no more than 300 nM.
In the case of `N#Cc1c(NC(=O)CCc2cccnc2)sc2c1CCN(C(=O)OCCc1ccccn1)C2` [Example 46, 3-Cyano-2-(3-pyridin-3-yl-propanoylamino)-4,7-dihydro-5H-thieno[2,3-c]pyridine-6-carboxylic acid 2-pyridin-2-yl-ethyl ester], the IC50 [1] is reported as greater than 100000 nM and the IC50 [2] is reported as 300 to 2000 nM.
For `CCOC(=O)N1CCc2c(sc(NC(=O)CC(C)(C)c3ccccc3)c2C#N)C1` [Example 47, 3-Cyano-2-(3-methyl-3-phenyl-butanoylamino)-4,7-dihydro-5H-thieno[2,3-c]pyridine-6-carboxylic acid ethyl ester], the IC50 [1] was greater than 100000 nM and the IC50 [2] was no more than 300 nM.
Molecule `CCOC(=O)N1CCc2c(sc(NC(=O)C3CC3c3ccco3)c2C#N)C1` (stereo not drawn) [Example 48, 3-Cyano-2-{[1-(2-furan-2-yl-cyclopropyl)-methanoyl]-amino}-4,7-dihydro-5H-thieno[2,3-c]pyridine-6-carboxylic acid ethyl ester] has an IC50 [1] greater than 100000 nM and an IC50 [2] of no more than 300 nM.
`N#Cc1c(NC(=O)CCc2ccccc2)sc2c1CCN(C(=O)OCCN1CCOCC1)C2` [Example 50, 3-Cyano-2-(3-phenyl-propanoylamino)-4,7-dihydro-5H-thieno[2,3-c]pyridine-6-carboxylic acid 2-morpholin-4-yl-ethyl ester] showed an IC50 [1] greater than 100000 nM and an IC50 [2] of no more than 300 nM.
`N#Cc1c(NC(=O)CCc2ccco2)sc2c1CCN(C(=O)OCCN1CCOCC1)C2` [Example 51, 3-Cyano-2-(3-furan-2-yl-propanoylamino)-4,7-dihydro-5H-thieno[2,3-c]pyridine-6-carboxylic acid 2-morpholin-4-yl-ethyl ester] gave an IC50 [1] greater than 100000 nM and an IC50 [2] of no more than 300 nM.
`N#Cc1c(NC(=O)CCc2ccccc2)sc2c1CCN(C(=O)OCCn1ccnc1)C2` [Example 54, 3-Cyano-2-(3-phenyl-propanoylamino)-4,7-dihydro-5H-thieno[2,3-c]pyridine-6-carboxylic acid 2-imidazol-1-yl-ethyl ester] was tested, and the IC50 [1] was greater than 100000 nM and the IC50 [2] was no more than 300 nM.
Work on `N#Cc1c(NC(=O)CCc2ccco2)sc2c1CCN(C(=O)OCCO)C2` [Example 55, 3-Cyano-2-(3-furan-2-yl-propanoylamino)-4,7-dihydro-5H-thieno[2,3-c]pyridine-6-carboxylic acid 2-hydroxy-ethyl ester] yielded an IC50 [1] greater than 100000 nM and an IC50 [2] of no more than 300 nM.
Molecule `N#Cc1c(NC(=O)CCc2ccccn2)sc2c1CCN(C(=O)OCCc1cccnc1)C2` [Example 107, 3-Cyano-2-(3-pyridin-2-yl-propanoylamino)-4,7-dihydro-5H-thieno[2,3-c]pyridine-6-carboxylic acid 2-pyridin-3-yl-ethyl ester] has an IC50 [1] greater than 100000 nM and an IC50 [2] of 300 to 2000 nM.
